# Measured values as given in US12590123B2, “Compounds and methods for treating cancer, viral infections, and allergic conditions” (Washington University, priority 2019, dated 2026).
# Where two headings read alike, the source gives them in different places.
# Experiments:
# Type in all cases: biochemical
# [1] = molecular target: T1, recombinant HGFA serine protease domain (Homo sapiens, UniProt Q04756); test: Fluorescent kinetic enzyme assay of HGFA activity (Boc-QLR-AMC)
# T1 construct: His6 tag (N); seven amino acid spacer plus TEV cleavage site (N); made in house; host or cells: High 5 insect cells (baculovirus; Sf9 for virus production)
# T1 sequence (Q04756 373-655): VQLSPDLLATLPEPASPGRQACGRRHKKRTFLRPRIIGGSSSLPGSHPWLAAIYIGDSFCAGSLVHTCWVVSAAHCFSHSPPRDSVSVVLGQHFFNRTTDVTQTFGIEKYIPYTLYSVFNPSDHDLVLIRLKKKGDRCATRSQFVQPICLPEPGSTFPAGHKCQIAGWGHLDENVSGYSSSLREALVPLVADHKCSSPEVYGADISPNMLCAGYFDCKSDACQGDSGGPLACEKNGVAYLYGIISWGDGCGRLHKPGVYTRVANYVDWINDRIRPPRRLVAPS
# From the text: The compounds prepared in Examples 1 to 8 were subjected to a series of inhibitions studies. The compounds were first tested in an HGFA enzymatic assay using the fluorogenic substrate Boc-QLR-AMC with a recombinant form of the HGFA serine protease domain.
# This PCR product was cloned into the SfoI-HindIII sites of a modified pFastBac HT baculovirus expression vector (Addgene, Cambridge, MA). This vector contains a six amino His tag followed by a seven amino spacer and a seven amino acid TEV cleavage site placed immediately downstream of the honey bee melittin signal peptide. Using a modified Bac to Bac Expression System (Life Technologies, Carlsbad, CA), recombinant HGFA bacmids were obtained by transforming DH10Bac Escherichia coli cells. To obtain HGFA containing baculovirus, purified bacmids were transfected into Sf9 insect cells. After 5 days in culture at 27° C., media was harvested from transfected Sf9 cells. This media was used to prepare baculovirus infected insect cells (BIICs). These BIIICs were used to infect High 5 insect cells. Four days post infection, media was harvested, and recombinant protein was prepared as follows. Media was chilled to 4° C. and spun at 4000×g for 20 minutes (all subsequent steps were performed at 4° C. unless noted). Clarified media was passed first through a Whatman GF/B 1 um (#1821-047, GE Healthcare Life Sciences, Piscataway, NJ) and then a 0.22 μm PES membrane (#99955, TPP Techno Plastic Products AG, Trasadingen, Switzerland) and then concentrated using a Pall Centramate tangential flow system and Centramate T-series Cassette (#OS010T12, Pall Corporation, Port Washington, NY). Concentrated media was then buffer exchanged in two steps, five volumes of 50 mM Na-phosphate, 500 mM NaCl, pH 6.2, followed by five volumes of 50 mM Na-phosphate, 500 mM NaCl, pH 7.5. […] After mixing this slurry for 12 hours, nickel agarose beads were allowed to settle by gravity and then loaded into a column. Beads were washed with buffer (25 mM Na-phosphate, 500 mM NaCl, 25 mM imidazole, pH 8) and the bound protein eluted using (25 mM Na-phosphate, 500 mM NaCl, 250 mM imidazole, pH 8). Using a Amicon Ultra-4 Centrifugal filters (#UFC801008, Merck Millipore, Ltd., Tullagreen, Ireland), peak protein fractions were concentrated and run over a Superdex-200 10/300 GL column (GE Healthcare Life Sciences, Piscataway, NJ) in 10 mM Tris, 200 mM NaCl, 0.2 mM EDTA, pH 8. HGFA containing fractions were pooled, concentrated, made 50% glycerol, and stored at minus 20° C. Protein was quantitated using a modified Lowry protein assay (#500-0006, Bio-Rad Laboratories, Hercules, CA) and specific activity determined using Boc-QLR-AMC substrate.
# Fluorescent kinetic enzyme assays of HGFA, matriptase, and hepsin activity: Compounds (0-20 μM final concentration in reaction) were diluted in DMSO (2% DMSO final concentration in reaction) and then mixed with either recombinant HGFA serine protease domain, matriptase (#3946-SE-010, R&D Systems, Minneapolis, Minnesota), or activated hepsin* (#4776-SE-010, R&D Systems, Minneapolis, Minnesota) in black 384 well plates (Corning #3575. Coming, NY). The final assay concentration for HGFA, matriptase, and hepsin, were 6.25 nM, 0.2 nM, and 0.3 nM, respectively in TNC buffer (25 mM Tris, 150 mM NaCl, 5 mM CaCl2, 0.01% Triton X-100, pH 8). After thirty minutes of incubation at room temperature, Boc-QLR-AMC substrate was added (HGFA assay) or Boc-QAR-AMC substrate (matriptase, and hepsin assays). Fluorescence (excitation at 380 nm and emission at 460 nm) was kinetically measured at room temperature over a 1 hour time period using a Biotek Synergy 2 plate reader (Winnoski, VT). From a plot of the mean reaction velocity versus the inhibitor concentration, a non-linear four parameter curve fit was performed using GraphPad Prism (GraphPad Software, San Diego, CA) to determine inhibitor IC50s. The IC50 values were determined from the average of three or more separate experimental determinations. […]
# matriptase = molecular target: T2, matriptase (Homo sapiens, UniProt Q9Y5Y6); test: Fluorescent kinetic enzyme assay of matriptase activity (Boc-QAR-AMC); conditions: Table 2; read-out: Matriptase (IC50 nM)
# T2 construct: purchased R&D Systems 3946-SE-010
# T2 sequence (Q9Y5Y6 615-855 limits assumed): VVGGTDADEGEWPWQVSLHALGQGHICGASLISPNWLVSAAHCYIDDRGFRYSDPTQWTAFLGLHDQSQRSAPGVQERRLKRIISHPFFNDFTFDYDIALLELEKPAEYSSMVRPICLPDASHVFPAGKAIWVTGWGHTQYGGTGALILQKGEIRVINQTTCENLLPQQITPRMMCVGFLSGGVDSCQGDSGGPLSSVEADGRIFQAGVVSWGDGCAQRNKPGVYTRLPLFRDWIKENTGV
# activated hepsin = molecular target: T3, activated hepsin (Homo sapiens, UniProt P05981); test: Fluorescent kinetic enzyme assay of hepsin activity (Boc-QAR-AMC)
# T3 construct: purchased R&D Systems 4776-SE-010
# Factor Xa = Factor Xa (Homo sapiens, UniProt P00742); test: Chromogenic kinetic enzyme assay of Factor Xa (S2222); conditions: Table 2; chromogenic assay; read-out: Factor Xa* (IC50 nM)
# Description: Using GraphPad Prism (GraphPad Software, San Diego, CA), a four-parameter curve fit was used to determine the inhibitor IC50s from a plot of the mean reaction velocity versus the inhibitor concentration. The IC50 values represent the average of three or more separate experimental determinations. Apparent Ki values were calculated from the IC50 values using the Cheng and Prusoff equation (Ki=IC50/(1+[S]/Km).
# Using GraphPad Prism version 6.04 software program, (GraphPad Software, San Diego, CA, graphpad.com), a four parameter curve fit was used to determine the inhibitor IC50s from a plot of the mean reaction velocity versus the inhibitor concentration.
# Fluorescent inhibitor and chromogenic proteolytic assays were performed for compounds prepared in Example 11 in general accordance with the procedures described in Example 9.
# [2] = Table 2, read-out: HGFA (IC50 nM)
# [3] = Table 2, read-out: Hepsin (IC50 nM)
# [4] = Table 3, average of three experiments, read-out: HGFA IC50
# [5] = Example 12, read-out: IC50 for hepsin
# T3 sequence (P05981 163-417 limits assumed): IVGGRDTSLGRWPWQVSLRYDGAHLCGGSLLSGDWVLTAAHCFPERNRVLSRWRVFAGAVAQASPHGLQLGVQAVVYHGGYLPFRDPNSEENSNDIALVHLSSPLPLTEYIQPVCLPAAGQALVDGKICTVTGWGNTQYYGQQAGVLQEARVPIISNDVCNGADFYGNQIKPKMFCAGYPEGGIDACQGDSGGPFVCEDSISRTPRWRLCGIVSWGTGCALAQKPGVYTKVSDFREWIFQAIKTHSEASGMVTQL
# T3 sequence (P05981 1-162 partner limits assumed): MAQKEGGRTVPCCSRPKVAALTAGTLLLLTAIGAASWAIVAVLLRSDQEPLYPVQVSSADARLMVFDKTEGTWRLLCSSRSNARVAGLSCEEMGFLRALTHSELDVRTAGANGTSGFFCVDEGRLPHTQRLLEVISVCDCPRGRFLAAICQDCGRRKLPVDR
# Factor Xa, sequence (P00742 235-488 limits assumed): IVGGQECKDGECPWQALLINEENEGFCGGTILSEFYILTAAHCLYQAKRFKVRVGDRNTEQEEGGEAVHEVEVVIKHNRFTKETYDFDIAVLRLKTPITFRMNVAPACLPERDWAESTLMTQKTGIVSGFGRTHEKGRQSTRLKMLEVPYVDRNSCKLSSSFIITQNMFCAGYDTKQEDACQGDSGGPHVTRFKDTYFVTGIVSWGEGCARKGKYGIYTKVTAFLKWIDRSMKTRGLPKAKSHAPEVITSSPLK
# Factor Xa, sequence (P00742 41-179 partner limits assumed): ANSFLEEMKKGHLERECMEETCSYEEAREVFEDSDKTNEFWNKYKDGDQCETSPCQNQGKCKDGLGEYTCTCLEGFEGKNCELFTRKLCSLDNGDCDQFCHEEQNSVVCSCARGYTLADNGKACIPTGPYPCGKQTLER
Compound,"IC50 [1, 2]",IC50 (matriptase),IC50 (activated hepsin; [3]),"IC50 [1, 4]",IC50 (activated hepsin; [5]),IC50 (Factor Xa)
CC(=O)N[C@@H](Cc1ccc(O)c([N+](=O)[O-])c1)C(=O)N[C@@H](CC(C)C)C(=O)N[C@@H](Cc1ccc(Br)cc1)C(=O)N[C@H](CCCNC(=N)N)C(=O)c1nc2ccccc2s1 [VD4112A],3510 nM,111 nM,23.9 nM,–,–,–
"CC(=O)N[C@H]1Cc2ccc(cc2)OC/C=C\CNC(=O)CC[C@@H](C(=O)N[C@@H](CCCNC(=N)N)C(=O)c2nc3ccccc3s2)NC(=O)[C@H](CC(C)C)NC1=O [VD4018, (11S,14S,17S,Z)-17-acetamido-N—((S)-1-(benzo[d]thiazol-2-yl)-5-guanidino-1-oxopentan-2-yl)-14-isobutyl-8,13,16-trioxo-2-oxa-7,12,15-triaza-1(1,4)-benzenacyclooctadecaphan-4-ene-11-carboxamide]",–,9.84 nM,6.31 nM,–,–,1240 nM
"CC1CN(CC2CCN(Cc3ccccc3)CC2)C(=O)N(c2cccc(C(=N)N)c2)C1 (stereo not drawn) [SRI 31215, reference compound]",–,–,–,20000 nM,–,–
CC(=O)N[C@H]1Cc2ccc(cc2)OCCCC[C@@H](C(=O)N[C@H](CCCNC(=N)N)C(=O)c2nc3ccccc3s2)NC(=O)[C@H](Cc2ccccc2)NC1=O [VD4111A],3280 nM,330 nM,12.7 nM,–,–,–
CC(=O)N[C@H]1CCCCNC(=O)CCC(C(=O)N[C@H](CCCNC(=N)N)C(=O)c2nc3ccccc3s2)NC(=O)[C@H](CCCNC(=N)N)NC1=O (stereo partly drawn) [VD2109A],4090 nM,0.19 nM,0.14 nM,–,–,–
"CC(C)C[C@H](NC(=O)OC1(c2ccccc2)CCNCC1)C(=O)N[C@@H](CCCNC(=N)N)C(=O)c1nc2ccccc2s1 [Compound 8a, 4-phenylpiperidin-4-yl ((S)-1-(((S)-1-(benzo[d]thiazol-2-yl)-5-guanidino-1-oxopentan-2-yl)amino)-4-methyl-1-oxopentan-2-yl)carbamate]",–,–,–,780 nM,–,–
CC(=O)N[C@H]1Cc2ccc(cc2)OC/C=C\CNC(=O)C[C@@H](C(=O)N[C@H](CCCNC(=N)N)C(=O)c2nc3ccccc3s2)NC(=O)[C@H](CC(C)C)NC1=O [VD4054A],> 20000 nM,76.6 nM,14 nM,–,–,–
CC(=O)N[C@H]1Cc2ccc(cc2)OC/C=C\C[C@@H](C(=O)NC(CCCNC(=N)N)C(=O)c2nc3ccccc3s2)NC(=O)[C@H](CC(C)C)NC1=O (stereo partly drawn) [VD4010A],197 nM,31.6 nM,1.14 nM,–,–,–

# Now from value to molecule, other results behind:
"IC50 [1, 2]",IC50 (matriptase),IC50 (activated hepsin; [3]),"IC50 [1, 4]",IC50 (activated hepsin; [5]),Compound,IC50 (Factor Xa)
4750 nM,19.1 nM,10.1 nM,–,–,"C=CCNC(=O)CC[C@H](NC(=O)[C@H](CC(C)C)NC(=O)[C@H](Cc1ccc(OCC=C)cc1)NC(C)=O)C(=O)N[C@@H](CCCNC(=N)N)C(=O)c1nc2ccccc2s1 [VD4022, (S)-2-((S)-2-((S)-2-acetamido-3-(4-(allyloxy)phenyl)propanamido)-4-methylpentanamido)-N5-allyl-N1-((S)-1-(benzo[d]thiazol-2-yl)-5-guanidino-1-oxopentan-2-yl)pentanediamide]",–
–,–,–,6000 nM,2 nM,"CC(C)C[C@H](NC(=O)OC(Cc1ccccc1)C1CCNCC1)C(=O)N[C@@H](CCCNC(=N)N)C(=O)c1nc2ccccc2s1 (stereo partly drawn) [Compound 11b, 2-phenyl-1-(piperidin-4-yl)ethyl ((S)-1-(((S)-1-(benzo[d]thiazol-2-yl)-5-guanidino-1-oxopentan-2-yl)amino)-4-methyl-1-oxopentan-2-yl)carbamate]",–
–,–,–,14000 nM,8 nM,"CC(C)C[C@H](NC(=O)OC(c1ccccc1)C1CCNCC1)C(=O)N[C@@H](CCCNC(=N)N)C(=O)c1nc2ccccc2s1 (stereo partly drawn) [Compound 11a, phenyl(piperidin-4-yl)methyl ((S)-1-(((S)-1-(benzo[d]thiazol-2-yl)-5-guanidino-1-oxopentan-2-yl)amino)-4-methyl-1-oxopentan-2-yl)carbamate]",–
> 20000 nM,1.1 nM,92 nM,–,–,"CC(C)C[C@@H]1NC(=O)[C@@H](N)CCCCNC(=O)C[C@@H](C(=O)N[C@@H](CCCNC(=N)N)C(=O)c2nc3ccccc3s2)NC1=O [VD1185, (2S,5S,13S)-13-amino-N—((S)-1-(benzo[d]thiazol-2-yl)-5-guanidino-1-oxopentan-2-yl)-2-isobutyl-3,7,14-trioxo-1,4,8-triazacyclotetradecane-5-carboxamide]",–
> 20000 nM,11.5 nM,11.9 nM,–,–,"CC(C)C[C@@H]1NC(=O)[C@@H](N)CCCCNC(=O)CC[C@@H](C(=O)N[C@@H](CCCNC(=N)N)C(=O)c2nc3ccccc3s2)NC1=O [VD2056, (2S,5S,14S)-14-amino-N—((S)-1-(benzo[d]thiazol-2-yl)-5-guanidino-1-oxopentan-2-yl)-2-isobutyl-3,8,15-trioxo-1,4,9-triazacyclopentadecane-5-carboxamide]",–
14000 nM,9.49 nM,1.15 nM,–,–,CC(=O)N[C@@H](Cc1ccc(O)c([N+](=O)[O-])c1)C(=O)N[C@@H](CC(C)C)C(=O)N[C@@H](Cc1ccc(Br)cc1)C(=O)N[C@@H](CCCNC(=N)N)C(=O)c1nc2ccccc2s1 [VD4112],–
5050 nM,0.13 nM,0.08 nM,–,–,"CC(=O)N[C@H]1CCCCNC(=O)CC[C@@H](C(=O)N[C@@H](CCCNC(=N)N)C(=O)c2nc3ccccc3s2)NC(=O)[C@H](CCCNC(=N)N)NC1=O [VD2109, (2S,5S,14S)-14-acetamido-N—((S)-1-(benzo[d]thiazol-2-yl)-5-guanidino-1-oxopentan-2-yl)-2-(3-guanidinopropyl)-3,8,15-trioxo-1,4,9-triazacyclopentadecane-5-carboxamide]",–
